Broadly, the logP is the decadic logarithm of the partition coefficient of the neutral form, usually between octanol and water.

A short description of the data set: method code SF-AS, from DOI: 10.1006/pest.1994.1057.
`O=[N+]([O-])C=C1NCCCN1Cc1ccc(Cl)nc1` displayed a logP of -0.62.
As to `Cc1ccc(CN2CCNC2=C[N+](=O)[O-])cn1`, the logP was -0.59.
For `N#CN=C1NCCN1Cc1ccc(Cl)nc1`, the logP is 0.77.
Turning to `O=[N+]([O-])C=C1SCCN1Cc1ccc(Cl)nc1`, the lipophilicity (logP) worked out at 0.65. The logP values of the last two compounds are within 0.2 log units of each other.
With `O=[N+]([O-])C=C1NCCN1Cc1ccc(Cl)cc1` the figure was 0.99.
Next, `O=[N+]([O-])/C=C1/NCCN1Cc1cccnc1`: -1.02; `O=[N+]([O-])/C=C1\NCCN1Cc1ccc(Cl)nc1`: -0.19; `O=[N+]([O-])C=C1NCCN1CCc1ccc(Cl)nc1`: -0.23.
With `CN1CCN(Cc2ccc(Cl)nc2)C1=N[N+](=O)[O-]` the figure was 0.26; with `O=[N+]([O-])C=C1NCCN1Cc1ccccn1`, -0.87; with `O=[N+]([O-])C=C1NCCN1c1ccc(Cl)nc1`, -0.23.
Regarding `O=[N+]([O-])N=C1NCCN1Cc1cccnc1`, the logP is -0.19.
Next, `O=[N+]([O-])C=C1NCCN1Cc1ccncc1`: -1.05.
With `O=[N+]([O-])/C=C1\NCCN1Cc1ccccc1` the figure was 0.33.

For the origin of these results see the SangsterLogP compilation.
